Experimental data taken from publication PMC7377239, “Cardiovascular Effects of Polychlorinated Biphenyls and Their Major Metabolites” (Environmental Health Perspectives, 2020).

Experiments:
[1] = tested on: iCell endothelial cells (human iPSC-derived ECs); assay: Tube formation (tubulogenesis) assay in iCell endothelial cells, 18 h; type: cell-based; conditions: Homo sapiens, Endothelial cell, endothelial cells (endo), 18 hr
Protocol: (§1) The culture conditions of iCell®-endothelial cells were as reported elsewhere ([Iwata et al. 2017]). Briefly, T75 flasks were coated with a fibronectin solution ( 3 μg/cm^2 ) followed by incubation for 1–2 h. Cells were thawed for 3 min in a 37°C water bath. Thawed cells were added to maintenance medium made of VascuLife VEGF Medium Complete Kit, excluding the supplied FBS, and iCell® Endothelial Cells Medium Supplement. The final formulation of the maintenance medium is detailed in ([Iwata et al. 2017]). The aliquoted fibronectin solution was aspirated from the T75 flasks, and cells were seeded at 1.0×10^4 cells/cm^2 . Cells were maintained at 37°C and 5% CO2 with media changes occurring every 2 d and passaged every 3–4 d using TrypLE™ Express. All experiments were conducted on cells between passages 1 and 5.
Tube formation assays were performed on Geltrex™ LDEV-free reduced growth factor basement membrane using both iCell®-endothelial cells and HUVECs in 384-well format exactly as detailed in Iwata et al. ([2017]). Negative controls included media-only and vehicle control (i.e., 0.5% vol/vol DMSO in cell culture media) wells. Positive assay controls were consistent with previously published reports ([Iwata et al. 2017]) and included TAB ( 50μM ) as a cytotoxic control, and nocodazole ( 0.01–1μM ), suramin ( 0.5–50μM ), histamine ( 0.1–100μM ), and chloroquine ( 1–500μM ) as chemicals associated with specific effects on ECs. Each test chemical was screened in triplicate for each concentration. Briefly, for iCell®-endothelial cells, starvation media consisted of VascuLife® basal medium with 4 mM L-glutamine LifeFactor and 0.1% iCell®-endothelial cells medium supplement. To counter dilution effects, a 2× concentration of the HUVEC maintenance medium supplemented with additional VEGF was created (EGM™-2 BulletKits™ at 2× concentration; also the VEGF component was replaced with 12.5 ng/mL VEGF). Geltrex™ LDEV-free reduced growth factor basement membrane was thawed overnight and dispensed into 384-well plates ( 10μL/well ) with tapping and rotating to evenly coat. The plates were incubated for 1 h in a cell culture incubator at 37°C and 5% CO2 . A 2× PCB plate (containing all of the PCBs and metabolites in dose–response) was prepared in basal media and added, 25μL per well, to the Geltrex™ coated plates. On separate plates, cells were seeded 7,500 (iPSC- ECs) or 3,500 (HUVEC) cells/well. Cells were exposed to chemicals overnight at 37°C and 5% CO2 and stained with 3× concentration of calcein AM ( 25μL /well, 6μmol/L ) for 15 min before imaging. Images were captured at 4× magnification with the FITC filter (calcein AM). Images were analyzed with the angiogenesis module software within MetaXpress™ (Molecular Devices).
(§2) Phenotypic responses were quantitatively assessed using concentration–response modeling as detailed elsewhere ([Sirenko et al. 2017]). Briefly, phenotypic readouts were normalized to vehicle controls and fit to a four-parameter logistic model in R studio software (version 3.1.1; R Development Core Team). Following EPA guidance on dose–response modeling, a cutoff of one standard deviation across means of vehicle control (i.e., 0.5% vol/vol DMSO in cell culture media) wells was applied to determine the point-of-departure (POD) values ([U.S. EPA 2012]). In the absence of a concentration–response, the highest tested concentration (i.e., 100μM ) was assigned as “no observable adverse effect level.” The concentration–response assessment R script, as well as templates for vehicle and concentration–response data, are available as a supplement to Sirenko et al. ([2017]). The ability of physicochemical properties to predict differences in PODs were evaluated by multiregression and mixed-effects modeling using R.

[2] = tested on: iCell endothelial cells (human iPSC-derived ECs); assay: High-content imaging cytotoxicity in iCell endothelial cells, 24 h; type: cell-based; conditions: Homo sapiens, Endothelial cell, endothelial cells (endo), 24 hr
Protocol: as §1
Cytotoxicity was assessed in parallel experiments. For iCell®-endothelial cells, 384-well plates were coated with a 30μg/mL fibronectin solution ( 10μL/well ) and incubated for 2 h at RT. iCell®-endothelial cells were dissociated with TrypLE™ Express and prepared into a solution to achieve 750 cells per well and 50μL of total volume. The fibronectin solution was removed from the 384-well plate, and cells were plated. For HUVECs, similar dissociation and the same cell density were used for plating with the exclusion of the fibronectin solution. Cells were incubated at 37°C and 5% CO2 until a monolayer was formed, typically 3–5 d. 2×PCB plates were created with the requisite maintenance medium. Before treatment, the medium in the wells was exchanged to 25μL/well of fresh maintenance medium. 2×PCB chemical solutions ( […] ) were added. After 24 h incubation at 37°C and 5% CO2 , cells were stained with Hoechst 33342, MitoTracker™ Orange, and calcein AM for 20 min before replacing the staining media with FluoroBright DMEM. Cell culture plates were imaged using the ImageXpress® Micro Confocal high-content imaging system (Molecular Devices). Images were acquired at 10× magnification with DAPI, TRITC, or FITC filter (Hoechst 33342, MitoTracker™, or calcein AM, respectively). The multiwavelength cell scoring applications module in MetaXpress™ (Molecular Devices) was used to analyze the images.
as §2

[3] = tube formation mtl, read-out: POD endo.mtl.18hr
[4] = tube formation tlps, read-out: POD endo.tlps.18hr
[5] = tube formation tta, read-out: POD endo.tta.18hr
[6] = tube formation ttl, read-out: POD endo.ttl.18hr
[7] = cyto, read-out: POD endo.cyto.24hr
[8] = mito, read-out: POD endo.mito.24hr
[9] = mitoint, read-out: POD endo.mitoint.24hr
[10] = nma, read-out: POD endo.nma.24hr

Structure (SMILES) | minimal effective concentration [1, 3] | minimal effective concentration [1, 4] | minimal effective concentration [1, 5] | minimal effective concentration [1, 6] | minimal effective concentration [2, 7] | minimal effective concentration [2, 8] | minimal effective concentration [2, 9] | minimal effective concentration [2, 10] | minimal effective concentration ([2]; tc, read-out: POD endo.tc.24hr)
COc1cc(Cl)c(-c2cc(Cl)ccc2Cl)cc1Cl [4-OMe-PCB 52, 4-methoxy-2,2′,5,5′-tetrachlorobiphenyl] | 52 µM | 56 µM | 51.6 µM | 54.7 µM | 43.5 µM | 43.5 µM | 100 µM | 56.1 µM | 40.3 µM
COc1ccc(-c2ccc(Cl)cc2)cc1 [4'-OMe-PCB 3, 4′-methoxy-4-chlorobiphenyl] | 3.4 µM | 12.3 µM | 7.76 µM | 7.16 µM | 100 µM | 100 µM | 20.5 µM | 100 µM | 100 µM
Clc1ccc(-c2cc(Cl)c(Cl)c(Cl)c2)cc1Cl [PCB 126, 3,3′,4,4′,5-pentachlorobiphenyl] | 28.1 µM | 4.68 µM | 25.7 µM | 38.9 µM | 0.33 µM | 0.33 µM | 10.2 µM | 100 µM | 0.34 µM
Oc1ccc(O)c(-c2ccc(Cl)cc2)c1 [2',5'-diOH-PCB 3, 4-Chloro-2′,5′-dihydroxybiphenyl] | 0.47 µM | 0.53 µM | 1.63 µM | 1.51 µM | 6.71 µM | 6.71 µM | 44.6 µM | 13.7 µM | 5.78 µM
